Consider 6 cell lines from the supplement of paper PMC10307832.

What all share (assay): relative viability (nuclei count vs DMSO), 5 days (fraction); higher = more cells survive
Compound in the test “IMD-0354 + Tozasertib”: O=C(Nc1cc(C(F)(F)F)cc(C(F)(F)F)c1)c1cc(Cl)ccc1O [IMD-0354] + Cc1cc(Nc2cc(N3CCN(C)CC3)nc(Sc3ccc(NC(=O)C4CC4)cc3)n2)n[nH]1 [Tozasertib] (partner 0.1 µM)
A digest of the protocol: (§1)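 Cells from lung cancer lines were seeded into 1536-well plates and, one day later, dosed by pin tool. Treatments were either a single drug or a fixed dose of an anchor drug with five library-drug doses (not always all listed) in √10 steps. After 5 days, nuclei were stained in a one-step fixation (final 0.05% Triton X-100, 1% formaldehyde, 1 ug/ml Hoechst) and counted on 4× images, and relative viability is the treated-to-vehicle nuclei ratio, as the median of duplicate plates.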

Compound in the test “IMD-0354 + Bortezomib”: O=C(Nc1cc(C(F)(F)F)cc(C(F)(F)F)c1)c1cc(Cl)ccc1O [IMD-0354] + CC(C)C[C@H](NC(=O)[C@H](Cc1ccccc1)NC(=O)c1cnccn1)B(O)O [Bortezomib] (partner 0.002 µM)
A digest of the protocol:
as §1

Compound in the test “CX-5461 + Dasatinib”: Cc1cnc(CNC(=O)c2c(=O)c3ccc(N4CCCN(C)CC4)nc3n3c2sc2ccccc23)cn1 [CX-5461] + Cc1nc(Nc2ncc(C(=O)Nc3c(C)cccc3Cl)s2)cc(N2CCN(CCO)CC2)n1 [Dasatinib] (partner 0.075 µM)
In a few lines:
as §1

Compound in the test “IMD-0354 + Pemetrexed”: O=C(Nc1cc(C(F)(F)F)cc(C(F)(F)F)c1)c1cc(Cl)ccc1O [IMD-0354] + Nc1nc2[nH]cc(CCc3ccc(C(=O)N[C@@H](CCC(=O)O)C(=O)O)cc3)c2c(=O)[nH]1 [Pemetrexed] (partner 0.2 µM)
A digest of the protocol:
as §1

Turning to NCI-H2085, the relative viability was determined as 0.941 with IMD-0354 + Tozasertib (first compound 0.04 µM); 0.797 in the test with IMD-0354 + Tozasertib (first compound 0.1265 µM); 0.681 in the test with IMD-0354 + Tozasertib (first compound 0.4 µM); 0.459 with IMD-0354 + Tozasertib (first compound 1.265 µM); 0.405 with IMD-0354 + Tozasertib (first compound 4 µM); 1.03 in the test with IMD-0354 + Bortezomib (first compound 0.04 µM). In addition, the relative viability with IMD-0354 + Bortezomib (first compound 0.1265 µM) is 1.09; in the test with IMD-0354 + Bortezomib (first compound 0.4 µM) it was 0.757; with IMD-0354 + Bortezomib (first compound 1.265 µM) it was 0.491; with IMD-0354 + Bortezomib (first compound 4 µM), 0.386; with CX-5461 + Dasatinib (first compound 0.01 µM) it was 0.237; with CX-5461 + Dasatinib (first compound 0.03162 µM), 0.228. Further, the relative viability with CX-5461 + Dasatinib (first compound 0.1 µM) was found to be 0.257; in the test with CX-5461 + Dasatinib (first compound 0.3162 µM), 0.229; in the test with CX-5461 + Dasatinib (first compound 1 µM), 0.252; with IMD-0354 + Pemetrexed (first compound 0.04 µM), 0.954; in the test with IMD-0354 + Pemetrexed (first compound 0.1265 µM), 0.846; with IMD-0354 + Pemetrexed (first compound 0.4 µM), 0.644. Also, the relative viability was 0.294 with IMD-0354 + Pemetrexed (first compound 1.265 µM) and 0.276 with IMD-0354 + Pemetrexed (first compound 4 µM).

Regarding NCI-H2087, the relative viability with IMD-0354 + Tozasertib (first compound 0.04 µM) was 0.273; in the test with IMD-0354 + Tozasertib (first compound 0.1265 µM) it was 0.228; with IMD-0354 + Tozasertib (first compound 0.4 µM), 0.167; in the test with IMD-0354 + Tozasertib (first compound 1.265 µM), 0.167; with IMD-0354 + Tozasertib (first compound 4 µM) it was 0.126; with IMD-0354 + Bortezomib (first compound 0.04 µM), 1.06. The relative viability with IMD-0354 + Bortezomib (first compound 0.1265 µM) was determined as 1; with IMD-0354 + Bortezomib (first compound 0.4 µM) it was 0.272; in the test with IMD-0354 + Bortezomib (first compound 1.265 µM) it was 0.145; with IMD-0354 + Bortezomib (first compound 4 µM), 0.151; in the test with CX-5461 + Dasatinib (first compound 0.01 µM) it was 0.938; in the test with CX-5461 + Dasatinib (first compound 0.03162 µM), 0.903. The relative viability with CX-5461 + Dasatinib (first compound 0.1 µM) stood at 0.736; with CX-5461 + Dasatinib (first compound 0.3162 µM), 0.793; with CX-5461 + Dasatinib (first compound 1 µM), 0.554; with IMD-0354 + Pemetrexed (first compound 0.04 µM), 0.721; with IMD-0354 + Pemetrexed (first compound 0.1265 µM), 0.688; in the test with IMD-0354 + Pemetrexed (first compound 0.4 µM), 0.345. Further, the relative viability was 0.0911 in the test with IMD-0354 + Pemetrexed (first compound 1.265 µM) and 0.106 with IMD-0354 + Pemetrexed (first compound 4 µM).

On to NCI-H2126, for which the relative viability with IMD-0354 + Tozasertib (first compound 0.04 µM) came to 0.915; in the test with IMD-0354 + Tozasertib (first compound 0.1265 µM) it was 0.942; with IMD-0354 + Tozasertib (first compound 0.4 µM), 0.573; in the test with IMD-0354 + Tozasertib (first compound 1.265 µM), 0.348; with IMD-0354 + Tozasertib (first compound 4 µM), 0.294; with IMD-0354 + Bortezomib (first compound 0.04 µM) it was 1.17. Besides, the relative viability with IMD-0354 + Bortezomib (first compound 0.1265 µM) was 1.12; with IMD-0354 + Bortezomib (first compound 0.4 µM) it was 0.89; in the test with IMD-0354 + Bortezomib (first compound 1.265 µM) it was 0.744; with IMD-0354 + Bortezomib (first compound 4 µM) it was 0.425; in the test with CX-5461 + Dasatinib (first compound 0.01 µM), 0.54; in the test with CX-5461 + Dasatinib (first compound 0.03162 µM), 0.568. Besides, the relative viability with CX-5461 + Dasatinib (first compound 0.1 µM) worked out at 0.562; with CX-5461 + Dasatinib (first compound 0.3162 µM), 0.672; with CX-5461 + Dasatinib (first compound 1 µM) it was 0.413; with IMD-0354 + Pemetrexed (first compound 0.04 µM), 0.74; in the test with IMD-0354 + Pemetrexed (first compound 0.1265 µM), 0.722; with IMD-0354 + Pemetrexed (first compound 0.4 µM), 0.569. In addition, the figures for the relative viability with IMD-0354 + Pemetrexed (first compound 1.265 µM) and in the test with IMD-0354 + Pemetrexed (first compound 4 µM) were 0.37 and 0.266, respectively.

For NCI-H2228, the relative viability was determined as 0.181 with IMD-0354 + Tozasertib (first compound 0.04 µM); 0.256 in the test with IMD-0354 + Tozasertib (first compound 0.1265 µM); 0.275 with IMD-0354 + Tozasertib (first compound 0.4 µM); 0.185 with IMD-0354 + Tozasertib (first compound 1.265 µM); 0.175 with IMD-0354 + Tozasertib (first compound 4 µM); 0.946 with IMD-0354 + Bortezomib (first compound 0.04 µM). Further, the relative viability worked out at 0.848 with IMD-0354 + Bortezomib (first compound 0.1265 µM); 0.653 with IMD-0354 + Bortezomib (first compound 0.4 µM); 0.362 with IMD-0354 + Bortezomib (first compound 1.265 µM); 0.258 with IMD-0354 + Bortezomib (first compound 4 µM); 0.399 in the test with CX-5461 + Dasatinib (first compound 0.01 µM); 0.465 with CX-5461 + Dasatinib (first compound 0.03162 µM). Also, the relative viability with CX-5461 + Dasatinib (first compound 0.1 µM) turned out to be 0.28; with CX-5461 + Dasatinib (first compound 0.3162 µM), 0.309; with CX-5461 + Dasatinib (first compound 1 µM) it was 0.0755; in the test with IMD-0354 + Pemetrexed (first compound 0.04 µM), 0.379; in the test with IMD-0354 + Pemetrexed (first compound 0.1265 µM), 0.37; with IMD-0354 + Pemetrexed (first compound 0.4 µM), 0.292. Also, the relative viability in the test with IMD-0354 + Pemetrexed (first compound 1.265 µM) worked out at 0.22; in the test with IMD-0354 + Pemetrexed (first compound 4 µM), 0.125.

For the cell line NCI-H2347, the relative viability came to 0.767 with IMD-0354 + Tozasertib (first compound 0.04 µM); 0.513 with IMD-0354 + Tozasertib (first compound 0.1265 µM); 0.563 in the test with IMD-0354 + Tozasertib (first compound 0.4 µM); 0.505 with IMD-0354 + Tozasertib (first compound 1.265 µM); 0.233 in the test with IMD-0354 + Tozasertib (first compound 4 µM); 0.741 with IMD-0354 + Bortezomib (first compound 0.04 µM). The relative viability in the test with IMD-0354 + Bortezomib (first compound 0.1265 µM) was determined as 1.02; in the test with IMD-0354 + Bortezomib (first compound 0.4 µM) it was 0.748; in the test with IMD-0354 + Bortezomib (first compound 1.265 µM) it was 0.606; with IMD-0354 + Bortezomib (first compound 4 µM), 0.533; with CX-5461 + Dasatinib (first compound 0.01 µM), 0.336; with CX-5461 + Dasatinib (first compound 0.03162 µM), 0.295. Besides, the relative viability with CX-5461 + Dasatinib (first compound 0.1 µM) is 0.4; in the test with CX-5461 + Dasatinib (first compound 0.3162 µM) it was 0.333; with CX-5461 + Dasatinib (first compound 1 µM), 0.328; in the test with IMD-0354 + Pemetrexed (first compound 0.04 µM) it was 0.387; in the test with IMD-0354 + Pemetrexed (first compound 0.1265 µM), 0.435; with IMD-0354 + Pemetrexed (first compound 0.4 µM), 0.373. For the same cell line, the relative viability turned out to be 0.365 with IMD-0354 + Pemetrexed (first compound 1.265 µM) and 0.27 in the test with IMD-0354 + Pemetrexed (first compound 4 µM).

As for NCI-H2405, the relative viability in the test with IMD-0354 + Tozasertib (first compound 0.04 µM) is 0.742; with IMD-0354 + Tozasertib (first compound 0.1265 µM) it was 0.727; with IMD-0354 + Tozasertib (first compound 0.4 µM) it was 0.732; with IMD-0354 + Tozasertib (first compound 1.265 µM) it was 0.346; with IMD-0354 + Tozasertib (first compound 4 µM), 0.322; with IMD-0354 + Bortezomib (first compound 0.04 µM), 1.04. Besides, the relative viability with IMD-0354 + Bortezomib (first compound 0.1265 µM) was 1.04; with IMD-0354 + Bortezomib (first compound 0.4 µM) it was 0.732; in the test with IMD-0354 + Bortezomib (first compound 1.265 µM), 0.498; with IMD-0354 + Bortezomib (first compound 4 µM), 0.302; with CX-5461 + Dasatinib (first compound 0.01 µM) it was 0.224; in the test with CX-5461 + Dasatinib (first compound 0.03162 µM), 0.204. The relative viability turned out to be 0.197 with CX-5461 + Dasatinib (first compound 0.1 µM); 0.205 with CX-5461 + Dasatinib (first compound 0.3162 µM); 0.193 in the test with CX-5461 + Dasatinib (first compound 1 µM); 1.16 with IMD-0354 + Pemetrexed (first compound 0.04 µM); 0.965 with IMD-0354 + Pemetrexed (first compound 0.1265 µM); 0.49 with IMD-0354 + Pemetrexed (first compound 0.4 µM). Further, the relative viability in the test with IMD-0354 + Pemetrexed (first compound 1.265 µM) came to 0.271; with IMD-0354 + Pemetrexed (first compound 4 µM), 0.277.
